Test results reported in patent US11061016B2, “In vitro model for pathological or physiologic conditions” (HemoShear, LLC, priority 2012, dated 2021).
Like-named read-outs stand apart in the source and are kept apart here.

Assays:
[1] = tested on: cytochrome p450 1A/1B; test: Cytochrome p450 activity assay (P450-GLO), 1A/1B
Method: (§3) Porous membrane segments roughly 2 cm^2 in area were excised and transferred to standard 24-well plates alongside corresponding static cultures. The cells were incubated with 500 μl of hepatocyte media containing substrates from commercially available P450-GLO kits (kits for luminescent cytochrome p450 assays) at the manufacturer-recommended concentrations. After 4 hours, the media was transferred to 96-well plates and assayed for luminescent metabolites to reflect cytochrome p450 activity as per the manufacturer protocol.
(§4) After 48 hours, on day 7, segments of the porous membrane from the devices containing hepatocytes cultured under controlled hemodynamics that were roughly 2.0 cm^2 in area were excised and transferred to standard 24-well plates and treated with substrates for the Cyp p450 enzymes in parallel to corresponding static cultures treated with the different agents. Cytochrome p450 assays were done on day 7 using commercially available P450-GLO kits. After 4 hours the media was transferred to 96-well plates and assayed for luminescent metabolites to reflect cytochrome p450 activity.

[2] = tested on: primary rat hepatocytes; test: Toxicity to hepatocytes under controlled flow during Cyp induction; details: 50 μM dexamethasone, concentration recommended for static cultures
Method: Cytochrome p450 assays were done on day 7 using commercially available P450-GLO kits. After 4 hours the media was transferred to 96-well plates and assayed for luminescent metabolites to reflect cytochrome p450 activity.

[3] = tested on: cytochrome p450 3A; test: Cytochrome p450 activity assay (P450-GLO), 3A; type: in vitro ADME, rat; details: controlled hemodynamics; dexamethasone 02.5 μM, 48 hours; DMSO 11.64
Method: as §3, §4

[4] = tested on: primary rat hepatocytes; test: Gluconeogenesis assay (AMPLEX RED glucose); type: cell-based; details: for Effect (% Change) on glucose levels: insulin 2 nM or glucagon 100 nM; for glucose levels: decreased by (insulin) / increased by (glucagon) / glucose levels: decreased by (insulin) / increased by further (glucagon): insulin 2 nM, glucagon 100 nM; for glucose levels: decreased by (insulin) / increased by further (glucagon): substrate glycerol
[5] = tested on: endothelial cells and smooth muscle cells; test: Hypertension model gene array analysis; type: cell-based; details: healthy and atheroprone conditions
Method: ANG2 at a concentration of 10 nM (10.46 ng/ml) or a DMSO vehicle control (VEH) was added to the upper volume and RNA was collected for gene array analysis.
Aldosterone at a concentration of 1 mM or a vehicle control (VEH) was added to the upper volume and RNA was collected for gene array analysis

[6] = tested on: primary human hepatocytes; details: 1 μM chlorpromazine; controlled hemodynamic conditions relative to static controls
[7] = tested on: primary human hepatocytes; details: 72 h
Method: Hepatocytes were then incubated with medium containing 1 mg/ml of MTT reagent (thiazolyl blue tetrazolium bromide) for 1 hour, following which the cells were lysed in DMSO to release the formazan blue dye formed. The solution was transferred to a 96 well plate and the absorbance was read at 595 nm.

[8] = tested on: primary rat hepatocytes; test: miRNA122 assay; type: cell-based; details: static conditions; chlorpromazine 1 μM, 4 hours
Method: The hepatocytes were then washed with PBS and incubated with serum free hepatocyte medium with or without known toxic drug chlorpromazine (CPZ) at two different concentrations (1 μM and 10 μM) for 4 hours. Supernatants from the cells were collected and microRNA extraction was performed using the MIRNEASY serum/plasma kit (a kit for extracting microRNA, Qiagen). The cDNA was prepared by using the MISCRIPTII RT kit (a kit for preparing cDNA, Qiagen) and samples quantified using the MISCRIPT SYBR GREEN PCR kit (a kit for quantifying cDNA, Qiagen), following the manufacturer's instructions.
The hepatocytes were washed with PBS and immediately incubated with either vehicle (distilled water) or chlorpromazine (1 μM) for 4 hours. The supernatant was collected and miRNA 122 levels were measured as described above.

[9] = tested on: primary rat hepatocytes; test: Biliary activity stain (CDFDA), canalicular pattern; type: cell-based; details: controlled hemodynamic conditions, 48 hours
Source text: Samples were then washed with PBS and placed on glass slide for confocal imaging.

[10] = tested on: rat hepatocytes; test: RT-PCR of oxidative stress-related and MRP genes; details: controlled hemodynamic conditions
[11] = tested on: endothelial cell/smooth muscle cell co-cultures; test: HDL in hemodynamic environment; type: cell-based; details: HDL at 45 μg/ml or 90 μg/ml; hemodynamic shear stress
Method: An additional component of plasma cholesterol distinct from nLDL or oxLDL is HDL. […] HDL was then added to the upper volume at a concentration of 45-1,000 μg/ml. This broad range reflects the broad range of HDL concentrations that can exist within human patients. HDL concentrations in individuals at risk for vascular disease are generally less than about 300 μg/ml, while HDL concentrations in healthy individuals range from greater than about 300 μg/ml up to about 2,000 μg/ml in healthy exercising patients.
In additional experiments, endothelial cell/smooth muscle cell co-cultures plated as described above were preconditioned for 16 hours with hemodynamic shear stress. From hours 16-24 the cells were additionally primed with 0.05 ng/ml TNFα and 50 μg/ml of oxLDL (compared to a vehicle control containing 50 μg/ml nLDL) in the upper volume. At 24 hours, 45 μg/ml or 90 μg/ml HDL was added to the media in the upper volume and hemodynamic shear stress was continued for the next 24 hours (hours 24-48).

[12] = tested on: endothelial cells and smooth muscle cells; test: oxLDL in hemodynamic environment: gene array, gene, protein and cytokine expression; type: cell-based; details: for number of genes regulated as compared to cells treated with nLDL: atheroprone, 50 μg/ml oxLDL vs 50 μg/ml nLDL
Method: Following 16-24 hours of shear stress preconditioning with atheroprotective or atheroprone hemodynamic forces, oxLDL was added to upper volume (containing the endothelial cells) at a concentration of 10-50 μg/ml (FIG. 5). In devices not receiving oxLDL, nLDL was added to the upper volume at the same concentration and used as a vehicle control. This concentration of oxLDL is similar to plasma concentrations of oxLDL observed in patients with cardiovascular disease. Shear stress application was continued for an additional 24 hours in the presence of oxLDL.
(§1) Five different donor pairs were used to analyze the oxLDL (50 μg/ml) response compared to nLDL (50 μg/ml) within the atheroprone hemodynamic environment in endothelial cells and smooth muscle cells. […] Significant genes were considered using an FDR of 0.01. Gene expression results are reported as the relative expression of the gene as compared to the expression of β-2 microglobulin (B2M). Protein expression results are reported as the relative expression of the protein as compared to the expression of actin. Activity of NFκB was assessed using an adenovirus NFκB-luciferase (Ad-NFκB-luc) reporter infected in ECs and SMCs.

[13] = tested on: endothelial cells; test: oxLDL and TNFα in hemodynamic environment: RT-PCR gene expression; type: cell-based; details: atheroprone shear stress, 50 μg/ml oxLDL without or with 0.05 ng/ml TNFα
Method: To emulate more inflammatory stages of atherosclerosis, it is desirable to combine multiple circulating factors to better emulate the complexity found within human blood vessels. […] The media in the upper volume was then exchanged for media containing 0.05 ng/ml TNFα and 50 μg/ml of oxLDL. Media containing only 50 μg/ml of nLDL was used as a control.
Following 24 hours of shear stress preconditioning with atheroprotective or atheroprone hemodynamic forces, 50 μg/ml of oxLDL and 0.05 ng/ml of TNFα were added to upper volume (containing the endothelial cells). This concentration of TNFα is similar to plasma concentrations of TNFα observed in patients with cardiovascular disease. In devices not receiving oxLDL, nLDL was added to the upper volume at the same concentration and used as a vehicle control. Shear stress application was continued for an additional 24 hours in the presence of TNF-α and oxLDL (see FIG. 5). Gene expression analysis was performed using RT-PCR.

[14] = tested on: NFκB; test: NFκB-luciferase reporter (Ad-NFκB-luc); type: cell-based; details: smooth muscle cells; oxLDL added to upper volume only
Method: as §1

[15] = tested on: Endothelial/smooth muscle cell co-cultures; test: Coculture thrombosis assay with shear stress, Protocol A (fibrin deposition); type: cell-based, Human; details: atheroprone hemodynamics vs static cultures
Method: (§2) Human endothelial cells were co-cultured with or without smooth muscle cells in the presence or absence of human-derived, region-specific hemodynamics. Endothelial cells were exposed to TNFα at various concentrations and incubated in human, platelet-free plasma supplemented by ALEXA FLUOR 488 (A488, a fluorescent dye)-labeled fibrinogen. Conversion of A488-fibrinogen to A488-fibrin and deposition on the endothelium was quantified by confocal microscopy.
Following 24 hours of shear stress application (atheroprone or atheroprotective), the media was supplemented with TNFα at a concentration of 0.05 ng/mL or 0.10 ng/mL and shear stress was continued for an additional 24 hours, as shown in FIG. 3A. Media was then removed from both the upper and lower chambers, and both the endothelial cells and smooth muscle cells are washed twice with PBS. Endothelial cells were then incubated for 15 minutes at 37° C. with PFP supplemented with 37.5 μg/mL ALEXA-488 human fibrinogen, 20 μg/mL corn trypsin inhibitor, and 10 mM calcium, and fixed and imaged as described above for monocultures.

[16] = tested on: endothelial cells; test: TNFα in hemodynamic environment: gene expression; type: cell-based; details: 0.1-1 ng/ml TNFα; atheroprone hemodynamic forces; not seen at same levels in static cultures
Method: Following 24 hours of shear stress preconditioning with atheroprotective or atheroprone hemodynamic forces, TNFα was added to upper volume (containing the endothelial cells) at a concentration of 0.05-1 ng/ml (see FIG. 5). This concentration of TNFα is similar to plasma concentrations of TNFα observed in patients with cardiovascular disease. Shear stress application was continued for an additional 24 hours in the presence of TNFα.

[17] = tested on: endothelial and smooth muscle cells; test: Expression of genes relevant to thrombosis; type: cell-based, Human; details: TNFα stimulation; both endothelial and smooth muscle cells
Method: as §2
FIG. 2B depicts a heat map of relative gene expression in endothelial and smooth muscle cells (grown under atheroprone or atheroprotective conditions; see FIG. 2A) of several genes relevant to thrombosis. The relative changes in gene expression of Tissue Factor (F3) and Thrombomodulin (THBD) are presented below the heat map. Atheroprone hemodynamics up-regulate Tissue Factor (F3) compared to atheroprotective shear stress. […] In addition, TNFα stimulation reduces Tissue Factor Pathway Inhibitor (TFPI) in both endothelial and smooth muscle cells.

[18] = No substrate, 4 hours, controlled hemodynamics
[19] = substrate Glycerol (2 mM), 4 hours
[20] = substrate Lactate/Pyruvate (20 mM/2 mM), 4 hours
[21] = substrates lactate and pyruvate
[22] = atheroprone hemodynamic environment

Cc1ccc2cc3c(ccc4ccccc43)c3c2c1CC3 [3-MC, 3-Methyl Cholanthrene]
induction responses seen at lower levels under controlled hemodynamics ([1]; controlled hemodynamics (0.1 μM) vs static (1 μM)): 10 fold | 1A/1B response (cytochrome p450 activity normalized to ATP content) ([1]; controlled hemodynamics, 3-MC 0.1 μM, 48 hours, DMSO 4.87): 133.06

C[C@@H]1C[C@H]2[C@@H]3CCC4=CC(=O)C=C[C@]4(C)[C@@]3(F)[C@@H](O)C[C@]2(C)[C@@]1(O)C(=O)CO [Dexamethasone, dexamethasone]
toxicity in the controlled flow system [2]: toxic | 3A response (cytochrome p450 activity normalized to ATP content) [3]: 57.53

OCC(O)CO [Glycerol, glycerol]
change in glucose produced with substrate alone ([4]; Glycerol 2 mM, no hormone, 4 hours): Glycerol (+67%) | glucose produced by the hepatocytes increased by ([4]; substrate glycerol (2 mM) alone): 67%

C[C@]12CCC(=O)C=C1CC[C@@H]1[C@@H]2[C@@H](O)C[C@]2(C=O)[C@@H](C(=O)CO)CC[C@@H]12 [aldosterone]
inflammatory genes (gene array) ([5]; Aldosterone 1 mM vs vehicle): upregulated

CN(C)CCCN1c2ccccc2Sc2ccc(Cl)cc21 [chlorpromazine]
upregulation of APEX nuclease gene [6]: 2.8 fold | upregulation of glutathione reductase (GSR) gene [6]: 8.3 fold | upregulation of sorbitol dehydrogenase (SORD) gene [6]: 6.9 fold | upregulation of thioredoxin reductase 1 (TXNRD1) gene [6]: 5.5 fold | toxicity ([7]; 1 μM): 30.3% | toxicity ([7]; 10 μM): 46.4% | miRNA 122 levels in the supernatants compared to vehicle controls [8]: did not cause any change

Cc1c(C)c2c(c(C)c1O)CCC(C)(COc1ccc(CC3SC(=O)NC3=O)cc1)O2 (stereo not shown) [troglitazone]
changes in the canalicular pattern (cholestatic changes) ([9]; troglitazone 4 uM): visibly dilated canalicular structures | changes in the canalicular pattern (cholestatic changes) ([9]; troglitazone 40 uM): much more prominent and extensive | oxidative stress-related genes and MRP3 and MRP4 genes [10]: upregulation

Angiotensin II (DRVYIHPF; Angiotensin-2; UniProt P01019 25-32, looked up) [ANG2]
inflammatory genes (gene array) ([5]; ANG2 10 nM (10.46 ng/ml) vs DMSO vehicle): upregulated

glucagon
Effect (% Change) on glucose levels [4, 18]: +51% | glucose levels: decreased by (insulin) / increased by (glucagon) ([4]; absence of a substrate): 51% | Effect (% Change) on glucose levels [4, 19]: +15% | Effect (% Change) on glucose levels [4, 20]: +80% | glucose levels: decreased by (insulin) / increased by further (glucagon) [4]: 15% | glucose levels: decreased by (insulin) / increased by (glucagon) [4, 21]: 80%

high-density lipoprotein [HDL]
atheroprotective and pro-inflammatory gene and protein activation [11]: activates many atheroprotective genes while blocking activation of pro-inflammatory genes and proteins

insulin
Effect (% Change) on glucose levels [4, 18]: −27% | glucose levels: decreased by (insulin) / increased by (glucagon) ([4]; absence of a substrate): 27% | Effect (% Change) on glucose levels [4, 19]: −38% | Effect (% Change) on glucose levels [4, 20]: −25% | glucose levels: decreased by (insulin) / increased by further (glucagon) [4]: 38% | glucose levels: decreased by (insulin) / increased by (glucagon) [4, 21]: 25%

oxidized low-density lipoprotein [oxLDL]
atheroprotective signaling (eNOS and KLF2) gene expression ([12]; atheroprone conditions): reduced | inflammatory genes IL8 and E-Selectin (SELE) expression ([12]; atheroprone conditions, not regulated in traditional static cultures): activate | levels of secreted cytokines (IL6, IL8, MCP-1) [12, 22]: increased | phosphorylation of atheroprotective eNOS signaling [12, 22]: reduced | number of genes regulated as compared to cells treated with nLDL ([12]; endothelial cells, 5 donors): 688 genes | number of genes regulated as compared to cells treated with nLDL ([12]; smooth muscle cells, 4 donors): 304 genes | eNOS gene expression (NOS3) [13]: reduced | E-Selectin (SELE) gene expression ([13]; control nLDL): higher levels | NFκB signaling (luciferase reporter) [14]: elevated

tumor necrosis factor-α [TNFα]
lower levels of TNFα to induce fibrin deposition as compared to static cultures [15]: 100- to 200 fold | inflammatory response (expression of E-Selectin, ICAM, VCAM, IL8) [16]: induced an inflammatory response | Tissue Factor Pathway Inhibitor (TFPI) expression [17]: reduces
